# Source: patent publication US20260137707A1, “METHODS OF MODULATING ATXN2 EXPRESSION” (University of Utah Research Foundation, priority 2022, published 2026)
# Where a name gives a salt, the structure may show the parent alone. Read-outs that look alike come from different tables or passages of the source.
# Assays:
# ATXN2-luc [1] = assay: Secondary assays, Bright-Glo luciferase in H2 and S2 cells; type: cell-based; settings: for min ATXN2-luc: minimum ATXN2-luc luciferase over 12 doses, H2 and S2 cells; for IC50: read-out: Mean IC50
# Experimental: (§1) Compounds were plated at 2× concentrations in 25 μl in 384 well plates with each compound dose plated in triplicate. An equal volume of S2, H2, or SC cells (24,000 cells/well) suspended in phenol-red free Dulbecco's Modified Eagle Medium (DMEM) with 10% fetal bovine serum and 1× penicillin/streptomycin were added. Cells were grown 24 hrs then assayed first by using the CellTiter-Fluor reagent (20 μl) followed by the addition of Bright-Glo ([…]) luciferase assay, using a multimode plate reader (Beckman DT880). Values were reported as the mean±standard deviation (SD) with n=3. IC50s were determined by the Hill coefficient method using an online tool (https://www.aatbio.com/tools/ic50-calculator).
# (§2) These 46 compounds were retested at 12 doses and a zero-compound dose, in multiplexed assays in 96-well plates using CellTiter-Fluor to determine cell viability, then Bright-Glo to determine luciferase expression. The values for H2 and S2 were used as replicates to calculate IC50s and to assess cell viability.
# (§3) For CMV-luc and viability charts, the fitted lines are second-order polynomials. Means and SD are shown.
# CMV-luc = assay: Secondary assays, Bright-Glo luciferase in SC cells; type: cell-based; settings: minimum CMV-luc luciferase in SC cells over 12 doses
# Experimental: as §1, §3
# [2] = Secondary assays, CellTiter-Fluor viability; settings: human;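 further: minimum viability across the dose series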
# Experimental: as §1, §2, §3
# ATXN2-luc [3] = test system: ATXN2-luc
# ATXN2-luc [4] = settings: average ATXN2-luc response of H2 and S1 cells
# ATXN2-luc [5] = assay: cells; settings: for activity at 1 µM: read-out: Luc at 1 μm; for activity at 10 µM: read-out: Luc at 10 μm
# [6] = Table 1, H2 cells, 24 hrs, single 10 μM dose, Z-score of luciferase
# [7] = Table 5S, pilot screen, H2 cells, 10 μM
# [8] = ATXN2-luc, Bright-Glo, H2 and S2 values used as replicates, 12 doses, 96-well plates
Molecule,viability at 24 h [2],SD from Mean (ATXN2-luc [3]; [6]),SD from Mean (ATXN2-luc [3]; [7]),Luc at 1 μm (ATXN2-luc [4]),activity at 10 µM (ATXN2-luc [5]),further results
N[C@@H](Cc1ccc(N(CCCl)CCCl)cc1)C(=O)O [Melphalan],89.3%,–,–,–,–,min ATXN2-luc (ATXN2-luc [1]): 44.84%; IC50 (ATXN2-luc [1]): 24.1 µM; min SC luc (CMV-luc): 79.97%
O=c1[nH]c(=O)n([C@H]2C[C@H](O)[C@@H](CO)O2)cc1F [Floxuridine],97.9%,–,–,–,–,–
S=C(NCc1ccc2c(c1)OCO2)N1CCN(c2ncnc3c2oc2ccccc23)CC1 [Amuvatinib],87.7%,–,–,–,–,min SC luc (CMV-luc): 74.26%
CC(C)c1cc(/C=C(\C#N)C(=O)NCCCc2ccccc2)cc(C(C)C)c1O [SU1498],–,−4.885 SD,−4.885 SD,22,–,Luc at 10 μm (ATXN2-luc [4]): 15
CC(C)c1cc(C(=O)N2Cc3ccc(CN4CCN(C)CC4)cc3C2)c(O)cc1O [Onalespib (AT-13387AU)],90.6%,–,–,–,–,–
C=CCn1c(=O)c2cnc(Nc3ccc(N4CCN(C)CC4)cc3)nc2n1-c1cccc(C(C)(C)O)n1 [MK-1775],77.9%,–,–,–,–,–
C[C@H]1O[C@@H](O[C@H]2[C@@H](O)C[C@H](O[C@H]3[C@@H](O)C[C@H](O[C@H]4CC[C@@]5(C)[C@H](CC[C@@H]6[C@@H]5C[C@@H](O)[C@]5(C)[C@@H](C7=CC(=O)OC7)CC[C@]65O)C4)O[C@@H]3C)O[C@@H]2C)C[C@H](O)[C@@H]1O [Digoxin],67.9%,–,–,–,12%,SD from Mean (ATXN2-luc [3]): −3.904 SD; activity at 1 µM (ATXN2-luc [5]): 47%
CNC(=O)c1nn(C)c2c1C(C)(C)Cc1cnc(Nc3ccc(N4CCN(C)CC4)cc3)nc1-2 [Milciclib],74.4%,–,–,–,–,–
CCN(CC)CCCCCCCCOC(=O)c1cc(OC)c(OC)c(OC)c1 [TMB-8],–,−5.740 SD,−5.740 SD,66,–,Luc at 10 μm (ATXN2-luc [4]): 53
COC(=O)C1=C(C)NC(C)=C(C(=O)OCCN(C)Cc2ccccc2)C1c1cccc([N+](=O)[O-])c1 (stereo not shown) [NICARDIPINE],–,−2.782 SD,−2.782 SD,112,61%,–
CS(=O)(=O)Nc1ccc(Cc2noc(-c3ccc4[nH]cc(CCN)c4c3)n2)cc1 [L-694 247],–,−3.156 SD,−3.156 SD,110,–,Luc at 10 μm (ATXN2-luc [4]): 6
C/C1=C2/[N-][C@H]([C@H](CC(N)=O)[C@@]2(C)CCC(=O)NC[C@@H](C)OP(=O)([O-])O[C@H]2[C@@H](O)[C@@H](n3cnc4cc(C)c(C)cc43)O[C@@H]2CO)[C@]2(C)N=C(/C(C)=C3N=C(/C=C4N=C1[C@@H](CCC(N)=O)C\4(C)C)[C@@H](CCC(N)=O)[C@]\3(C)CC(N)=O)[C@@H](CCC(N)=O)[C@]2(C)CC(N)=O.[Co] [COBALAMINE],–,−5.111 SD,−5.111 SD,126,–,Luc at 10 μm (ATXN2-luc [4]): 109
CCCCCCCCCOc1ccc2[nH]cc(CCN)c2c1 [ChemBridge ID# 5629242],–,−3.609 SD,–,110,–,Luc at 10 μm (ATXN2-luc [4]): 58
CC[C@@]1(O)C(=O)OCc2c1cc1n(c2=O)Cc2cc3ccccc3nc2-1 [Camptothecin],–,–,–,–,–,"IC50 (ATXN2-luc [1]; [8]): 0.04 µM; viability at 24 h ([2]; H2, S2 and SC cells): 92.1%"
C[n+]1cc2c3c(ccc2c2ccc4cc5c(cc4c21)OCO5)OCO3 [Sanguinarine],–,−2.689 SD,−2.689 SD,127,160%,–
STROPH[…] LACTONE ACETATE,–,−3.855 SD,−3.855 SD,37,–,Luc at 10 μm (ATXN2-luc [4]): 20
COc1ccc(CN2CCN(C(c3ccc(F)cc3)c3ccc(F)cc3)CC2)c(OC)c1OC [LOMERIZINE DiHCl],–,−2.782 SD,−2.782 SD,102,55%,–
CC(=O)O[C@H]1C[C@H](O[C@H]2[C@@H](O)C[C@H](O[C@H]3[C@@H](O)C[C@H](O[C@H]4CC[C@@]5(C)[C@H](CC[C@@H]6[C@@H]5C[C@@H](O)[C@]5(C)[C@@H](C7=CC(=O)OC7)CC[C@]65O)C4)O[C@@H]3C)O[C@@H]2C)O[C@H](C)[C@H]1O[C@@H]1O[C@H](CO)[C@@H](O)[C@H](O)[C@H]1O [LANATOSIDE C],–,−4.323 SD,−4.323 SD,39,–,"SD from Mean (ATXN2-luc [3]; Table 1, H2 cells, 24 hrs, single 10 μM dose, Z-score of luciferase, listed as Lanatoside C): −3.629 SD; SD from Mean (ATXN2-luc [3]; Table 5S, pilot screen, H2 cells, 10 μM, listed as Lanatoside C): −3.629 SD; Luc at 10 μm (ATXN2-luc [4]): 15"
Cyanocobalamin,–,−2.681 SD,−2.681 SD,110,–,Luc at 10 μm (ATXN2-luc [4]): 140

Molecule,viability at 24 h [2],SD from Mean (ATXN2-luc [3]; [6]),SD from Mean (ATXN2-luc [3]; [7]),Luc at 1 μm (ATXN2-luc [4]),activity at 10 µM (ATXN2-luc [5]),further results
Nc1ccc(-c2ccc3ncc4ccc(=O)n(-c5cccc(C(F)(F)F)c5)c4c3c2)cn1 [Torin2],–,–,–,–,–,IC50 (ATXN2-luc [1]; [8]): 0.257 µM; min ATXN2-luc (ATXN2-luc [1]): 25.42%; min SC luc (CMV-luc): 128.4%
O=C(NC1CCNCC1)c1n[nH]cc1NC(=O)c1c(Cl)cccc1Cl [AT7519],50.3%,–,–,–,–,–
CN(C)CCN1C(=O)c2cccc3cc(N)cc(c23)C1=O [Amonafide],68.2%,–,–,–,–,–
COc1cc2ncn(-c3cc(OCc4ccccc4C(F)(F)F)c(C(N)=O)s3)c2cc1OC [GW843682X],75.5%,–,–,–,–,–
[H]/N=C(/NCCCCC)N/N=C/c1c[nH]c2ccc(OC)cc12 [TEGASEROD MALEATE],–,−3.606 SD,–,–,8%,–
C[C@]12CC[C@H](O)C[C@H]1CC[C@@H]1[C@@H]2[C@H](O)C[C@]2(C)[C@@H](C3=CC(=O)OC3)CC[C@]12O [SARMENTOGENIN],–,−3.539 SD,–,–,24%,activity at 1 µM (ATXN2-luc [5]): 53%
CC[C@H]1CN2CCc3cc(OC)c(OC)cc3[C@@H]2C[C@@H]1C[C@H]1NCCc2cc(O)c(OC)cc21.Cl.Cl.O.O.O.O.O.O.O [Cephaeline dihydrochloride heptahydrate],–,−4.055 SD,−4.055 SD,16,–,Luc at 10 μm (ATXN2-luc [4]): 17
Cc1cc(Nc2cc(CN3CCOCC3)c3nc(C)c(Cc4ccc(Cl)cc4F)n3n2)n[nH]1 [Gandotinib],81.6%,–,–,–,–,min SC luc (CMV-luc): 67.19%
CO[C@H]1[C@@H](O)[C@@H](C)O[C@@H](O[C@H]2CC[C@]3(C)[C@H]4CC[C@]5(C)[C@@H](C6=CC(=O)OC6)CC[C@]5(O)[C@@H]4CC[C@]3(O)C2)[C@@H]1O [EMICYMARIN],–,−3.080 SD,−3.080 SD,115,–,Luc at 10 μm (ATXN2-luc [4]): 31
CC(N/C(=N\C#N)Nc1ccncc1)C(C)(C)C (stereo not shown),–,−4.875 SD,−4.875 SD,–,17%,–
CC(C)=CCc1c(O)cc2occ(-c3ccc4c(c3)OCO4)c(=O)c2c1O [DERRUBONE],–,−3.621 SD,−3.621 SD,–,15%,activity at 1 µM (ATXN2-luc [5]): 11%
C[C@@H]1O[C@@H](O[C@H]2C[C@@H](O)[C@]3(CO)[C@H]4[C@H](O)C[C@]5(C)[C@@H](C6=CC(=O)OC6)CC[C@]5(O)[C@@H]4CC[C@]3(O)C2)[C@H](O)[C@H](O)[C@H]1O [OUABAIN],–,−3.832 SD,−3.832 SD,–,12%,viability [2]: 74.3%; activity at 1 µM (ATXN2-luc [5]): 14%
CC1=CC(=O)c2ccccc2C1=O [Menadione],–,−3.434 SD,–,–,35%,–
COc1ccc(CCCOC(Cn2ccnc2)c2ccc(OC)cc2)cc1 (stereo not shown) [SKF-96365],–,−2.721 SD,−2.721 SD,–,57%,activity at 1 µM (ATXN2-luc [5]): 104%
C=CCNC1=C2C[C@@H](C)C[C@H](OC)[C@H](O)[C@@H](C)/C=C(\C)[C@H](OC(N)=O)[C@@H](OC)/C=C\C=C(/C)C(=O)NC(=CC1=O)C2=O [tanespimycin],83.6%,–,–,–,–,IC50 (ATXN2-luc [1]): 0.442 µM
CC(=O)O[C@H]1CC[C@@]2(C)[C@H](CC[C@@H]3[C@@H]2CC[C@]2(C)[C@@H](C4=CC(=O)OC4)[C@@H](OC(C)=O)C[C@]32O)C1 [GITOXIGENIN DIACETATE],–,−4.261 SD,−4.261 SD,–,21%,activity at 1 µM (ATXN2-luc [5]): 27%
O=C1NC(=O)/C(=C/c2ccc3nccc(-c4ccncc4)c3c2)S1 [GSK-615],75.5%,–,–,–,–,–
C1CCC(N=C(NC23CC4CC(CC(C4)C2)C3)N2CCOCC2)CC1.Cl [U-37883A],–,−4.965 SD,−4.965 SD,94,–,Luc at 10 μm (ATXN2-luc [4]): 17
C[C@H]1O[C@@H](O[C@H]2[C@@H](O)C[C@H](O[C@H]3[C@@H](O)C[C@H](O[C@H]4CC[C@@]5(C)[C@H](CC[C@@H]6[C@@H]5CC[C@]5(C)[C@@H](C7=CC(=O)OC7)[C@@H](O)C[C@]65O)C4)O[C@@H]3C)O[C@@H]2C)C[C@H](O)[C@@H]1O [GITOXIN],–,−4.086 SD,−4.086 SD,–,12%,activity at 1 µM (ATXN2-luc [5]): 21%
